Article PMC3024946, “Hydroxyproline-containing collagen analogs trigger the release and activation of collagen-sequestered proMMP-2 by competition with prodomain-derived peptide P33-42” (Fibrogenesis & Tissue Repair, 2011)

Experiments:
[1] = test system: ActMMP-9; assay: Solid-phase binding of [125I]-actMMP-9 to immobilized collagens/peptides (microwells); parameters: species or system human; settings: ActMMP-9, 2 ng/well; coated wells; 4°C, 2 h; residual radioactivity; mean ± SD, at least five experiments in triplicate
Procedure: (§1) Human recombinant proMMPs and in vitro activated MMPs were obtained from Invitek and were labeled with the [^125I]-Bolton-Hunter reagent according to the manufacturer's instructions (PerkinElmer, Rodgau, Germany) before the buffer was exchanged for phosphate-buffered saline (PBS) with 0.05% (vol/vol) Tween 20 by gel filtration as described previously. Specific radioactivity for [^125I]-MMPs was 3-9 × 10^4 cpm/ng. Precipitation with 10% (wt/vol) trichloroacetic acid and 200 μg of BSA recovered 96% to 100% of protein-bound radioactivity. Aliquots of labeled MMPs were frozen and stored at -80°C. The activity and integrity were checked by substrate gel zymography using SDS-PAGE and autoradiography with overnight exposure to Biomax MS film (Kodak, Stuttgart, Germany) (Figure 2A).
(§2) Native human CI, CIII and CVI were purified from skin tissue and placenta. The CI single chains α1(I) and α2(I) were obtained and modified as described previously. To prepare defined fragments, 2 mg of α1(I) were dissolved in 1 ml of 70% (vol/vol) formic acid at room temperature, the tubes were flushed with nitrogen for 10 min, and then 2 mg of CB were added. After incubation for 4 h at 37°C, free CB was neutralized and the samples were lyophilized. The peptides CB3, CB6, CB7 and CB8 were separated from the reaction mixture by gel filtration followed by ion-exchange chromatography. The resulting peptides were characterized by amino acid analysis and SDS-PAGE [45, 46]. The CB peptides had the following melting temperatures: CB3, 23.9°C; CB6, 26.7°C; CB7, 28.1°C; and CB8, 28.0°C [31].
(§3) The following collagen analogs and control peptides were synthesized as described previously: (GPO)10, H-Gly-Cys-Hyp-(Gly-Pro-Hyp)10-Gly-Cys-Hyp-Gly-NH2; (GPP)10, H-Gly-Cys-Pro-(Gly-Pro-Pro)10-Gly-Cys-Pro-Gly-NH2; and GAP, H-Gly-Ala-Cys-(Gly-Ala-Pro)5-Gly-Phe-Hyp-Gly-Glu-Arg-(Gly-Ala-Pro)5-NH2. Peptides (POG)10, (PPG)10 and (POG)5 were purchased from Peptide International (Louisville, KY, USA). Spontaneous triple-helix assembly was approved by polarimetry over a 10-cm path length at 1°C/min in 10 mM phosphate buffer, pH 7.4. At 5 mg/ml, midpoints of melting curves occurred at 82.3 ± 1.4°C for (GPO)10 and at 45.8 ± 0.8°C for (GPP)10. […] Graphs were calculated from the primary data using a custom fitting program written by D.A. Slatter (Department of Biochemistry, University of Cambridge, Cambridge, UK [48]) to model different possible transitions. All collagens, CI derivatives and peptides were stored in stock solutions of 2 mg/ml in 150 mM acetic acid at -20°C.
(§4) ProMMP-2 and proMMP-9 or actMMP-2 and actMMP-9 were bound to nitrocellulose and polystyrene-immobilized native collagens, CI chains, CB peptides or structural analogs. Serial dilutions of collagens or CI derivatives in 150 mM acetic acid were dotted at 3 × 3 μl to a nitrocellulose membrane with high protein-binding capacity (GE Healthcare, Munich, Germany). Air-dried membranes were blocked with PBS and 0.3% (vol/vol) Tween 20 overnight at 4°C, washed three times, and incubated with 1 ng/ml [^125I]-pro- and actMMP-2 and pro- and actMMP-9 in PBS and 0.3% (vol/vol) Tween 20 for 2 h at room temperature. Membranes were washed again and air-dried, and bound MMP was monitored by autoradiography. In parallel, polystyrene microtiter plates (Dynex, Chantilly, VA, USA) were coated with collagen proteins and peptides. Here 2 μg/well or 200 ng/well proteins and peptides or BSA as control were immobilized in 100 μl of 50 mM ammonium bicarbonate buffer, pH 9.6, by overnight incubation at 4°C. Immobilization efficacies were 20% to 45% of total proteins. Wells were washed three times with PBS, and nonspecific binding sites were blocked with PBS and 0.05% (vol/vol) Tween 20 for 1 h at room temperature. All incubation steps were performed with 2 ng of [^125I]-MMPs at 4°C for 2 h. […]

[2] = test system: ActMMP-2; assay: Solid-phase binding of [125I]-actMMP-2 to immobilized collagens/peptides (microwells); parameters: species or system human; settings: ActMMP-2, 2 ng/well; coated wells; 4°C, 2 h; residual radioactivity; mean ± SD, at least five experiments in triplicate
Procedure: as §1, §2, §3, §4

[3] = Triple-helix melting temperature; type: physicochemical; settings: polarimetry; 5 mg/ml; 10 mM phosphate buffer, pH 7.4, 1°C/min
Procedure: as §2, §3

[4] = test system: ProMMP-9; assay: Solid-phase binding of [125I]-proMMP-9 to immobilized collagens/peptides (microwells); parameters: species or system human; settings: for Binding of [125I]-MMPs: ProMMP-9, 2 ng/well, coated wells, 4°C, 2 h, residual radioactivity, mean ± SD, at least five experiments in triplicate
Procedure: as §1, §2, §3, §4

[5] = test system: ProMMP-2; assay: Solid-phase binding of [125I]-proMMP-2 to immobilized collagens/peptides (microwells); parameters: species or system human; settings: for Binding of [125I]-MMPs: ProMMP-2, 2 ng/well, coated wells, 4°C, 2 h, residual radioactivity, mean ± SD, at least five experiments in triplicate
Procedure: as §1, §2, §3, §4

| Binding of [125I]-MMPs [1] | Binding of [125I]-MMPs [2] | midpoint of melting curve [3] | Binding of [125I]-MMPs [4] | Binding of [125I]-MMPs [5] | interaction with control peptides ([5]; pro- and act-forms of MMP-2 and MMP-9, in words) | binding of proMMP vs respective actMMP ([4]; proMMP-9 vs actMMP-9 (stated jointly for MMP-2 and MMP-9)) | binding of proMMP vs respective actMMP ([5]; proMMP-2 vs actMMP-2 (stated jointly for MMP-2 and MMP-9)) | Substance |
| --- | --- | --- | --- | --- | --- | --- | --- | --- |
| 0.9 ± 0.4 % of maximum control | 2.1 ± 0.7 % of maximum control | 45.8 ± 0.8 °C | 4.9 ± 0.7 % of maximum control | 3.6 ± 2.0 % of maximum control | only marginal interactions | – | – | H-Gly-Cys-Pro-(Gly-Pro-Pro)10-Gly-Cys-Pro-Gly-NH2 [(GPP)10, Triple-helical Gly-Pro-Pro (GPP)10, devoid of Hyp] |
| 5.4 ± 0.6 % of maximum control | 6.2 ± 3.1 % of maximum control | 82.3 ± 1.4 °C | 36.1 ± 1.7 % of maximum control | 13.0 ± 3.5 % of maximum control | – | two- to sevenfold more strongly | two- to sevenfold more strongly | H-Gly-Cys-Hyp-(Gly-Pro-Hyp)10-Gly-Cys-Hyp-Gly-NH2 [(GPO)10, triple-helical Hyp-containing collagen analog] |
